# Measured values: ChEMBL document CHEMBL3885861, “Open TG-GATES”
# Species: Rattus norvegicus
# Assay: Open TG-GATES - Regimen: Daily Repeat
# Type: toxicity, organism-based, Sprague-Dawley
# Parameters: regimen Daily Repeat, gender Male, age 6 weeks
# Settings: in vivo, po, route gavage; for APTT / Bas / Eos / Fbg / Ht / Lym / MCHC / MCV / Mono / RBC / Ret / WBC / Hb / Neu: tissue Blood; for KIDNEY_L / KIDNEY_R / KIDNEY_TOTAL: tissue Kidney; for ALP / ALT / AST / BUN / CRE / Ca / Cl / DBIL / GLC / IP / K / PL / RALB / TBIL / TC / TG / TP / gamma-GTP: tissue Plasma
# [1] = 0 mg/kg, 72 h, dose level Control, time 3 day
# [2] = 0 mg/kg, […], dose level Control, time 7 day
# [3] = 0 mg/kg, […], dose level Control, time 14 day
# [4] = 0 mg/kg, […], dose level Control, time 28 day
# [5] = 20 mg/kg, 72 h, dose level Low, time 3 day
# [6] = 20 mg/kg, […], dose level Low, time 7 day
# [7] = 20 mg/kg, […], dose level Low, time 14 day
# [8] = 20 mg/kg, […], dose level Low, time 28 day
# [9] = 60 mg/kg, 72 h, dose level Middle, time 3 day
compound,measurement,setting,value
CCCCC1C(=O)N(c2ccccc2)N(c2ccccc2)C1=O [PHENYLBUTAZONE],TERMINAL_BW,[1],239.7 g
same,APTT,[1],16.9 s
same,Bas,[1],0%
same,Eos,[1],1%
same,Fbg,[1],233.4 mg/dL
same,Ht,[1],42.7%
same,Lym,[1],81.6%
same,MCHC,[1],33.3%
same,MCV,[1],63.6 fL
same,Mono,[1],5.6%
same,RBC,[1],672.8 x10_4/ul
same,Ret,[1],7.3%
same,WBC,[1],131.2 x10_2/uL
same,KIDNEY_L,[1],1.1 g
same,KIDNEY_R,[1],1.1 g
same,KIDNEY_TOTAL,[1],2.2 g
same,ALP,[1],868 IU/L
same,ALT,[1],35.2 IU/L
same,AST,[1],61 IU/L
same,BUN,[1],17.4 mg/dL
same,CRE,[1],0.6 mg/dL
same,Ca,[1],10.6 mg/dL
same,Cl,[1],105 meq/L
same,DBIL,[1],0 mg/dL
same,GLC,[1],195.2 mg/dL
same,IP,[1],9 mg/dL
same,K,[1],5.1 meq/L
same,PL,[1],170.6 mg/dL
same,RALB,[1],4 g/dL
same,TBIL,[1],0.3 mg/dL
same,TC,[1],86.6 mg/dL
same,TG,[1],136.4 mg/dL
same,TP,[1],6.1 g/dL
same,gamma-GTP,[1],1.6 IU/L
same,TERMINAL_BW,[2],268.9 g
same,TERMINAL_BW,[3],318.1 g
same,TERMINAL_BW,[4],373 g
same,APTT,[2],15.7 s
same,Bas,[2],0%
same,Eos,[2],0.8%
same,Fbg,[2],242.2 mg/dL
same,Hb,[2],13.9 g/dL
same,Ht,[2],42.1%
same,Lym,[2],84.2%
same,MCHC,[2],33.1%
same,MCV,[2],62.4 fL
same,Mono,[2],6.6%
same,Neu,[2],8.8%
same,RBC,[2],674.8 x10_4/ul
same,Ret,[2],5.4%
same,WBC,[2],155.4 x10_2/uL
same,APTT,[3],16.4 s
same,Bas,[3],0%
same,Eos,[3],0.6%
same,Fbg,[3],227.8 mg/dL
same,Hb,[3],15 g/dL
same,Ht,[3],44.8%
same,Lym,[3],84.8%
same,MCHC,[3],33.6%
same,MCV,[3],62.7 fL
same,Mono,[3],4.2%
same,Neu,[3],10.2%
same,RBC,[3],714.8 x10_4/ul
same,Ret,[3],4.4%
same,WBC,[3],131.9 x10_2/uL
same,APTT,[4],16 s
same,Bas,[4],0%
same,Eos,[4],1%
same,Fbg,[4],233 mg/dL
same,Hb,[4],15.7 g/dL
same,Ht,[4],46.9%
same,Lym,[4],82.8%
same,MCHC,[4],33.4%
same,MCV,[4],56.2 fL
same,Mono,[4],4.2%
same,RBC,[4],835.8 x10_4/ul
same,Ret,[4],2.1%
same,WBC,[4],151.8 x10_2/uL
same,KIDNEY_L,[2],1.2 g
same,KIDNEY_R,[2],1.1 g
same,KIDNEY_TOTAL,[2],2.3 g
same,KIDNEY_L,[3],1.2 g
same,KIDNEY_R,[3],1.2 g
same,KIDNEY_TOTAL,[3],2.3 g
same,KIDNEY_L,[4],1.4 g
same,KIDNEY_R,[4],1.4 g
same,KIDNEY_TOTAL,[4],2.7 g
same,ALP,[2],919.6 IU/L
same,ALT,[2],35.6 IU/L
same,AST,[2],69 IU/L
same,BUN,[2],18.8 mg/dL
same,CRE,[2],0.5 mg/dL
same,Ca,[2],10.6 mg/dL
same,Cl,[2],105.4 meq/L
same,DBIL,[2],0.006 mg/dL
same,GLC,[2],210.8 mg/dL
same,IP,[2],8.9 mg/dL
same,K,[2],4.9 meq/L
same,RALB,[2],3.9 g/dL
same,TBIL,[2],0.3 mg/dL
same,TC,[2],74.4 mg/dL
same,TG,[2],112.6 mg/dL
same,TP,[2],6.6 g/dL
same,gamma-GTP,[2],1.8 IU/L
same,ALP,[3],748 IU/L
same,ALT,[3],31.4 IU/L
same,AST,[3],57.8 IU/L
same,BUN,[3],19.6 mg/dL
same,CRE,[3],0.6 mg/dL
same,Ca,[3],10.5 mg/dL
same,Cl,[3],108 meq/L
same,DBIL,[3],0.016 mg/dL
same,GLC,[3],207.4 mg/dL
same,IP,[3],7.9 mg/dL
same,K,[3],4.7 meq/L
same,PL,[3],160.4 mg/dL
same,RALB,[3],4 g/dL
same,TBIL,[3],0.3 mg/dL
same,TC,[3],79.2 mg/dL
same,TG,[3],177.6 mg/dL
same,TP,[3],6.2 g/dL
same,gamma-GTP,[3],1.2 IU/L
same,ALP,[4],692.8 IU/L
same,ALT,[4],33 IU/L
same,AST,[4],62 IU/L
same,BUN,[4],20.2 mg/dL
same,CRE,[4],0.6 mg/dL
same,Ca,[4],10.1 mg/dL
same,Cl,[4],107.6 meq/L
same,DBIL,[4],0.008 mg/dL
same,GLC,[4],200 mg/dL
same,IP,[4],6.8 mg/dL
same,K,[4],4.5 meq/L
same,RALB,[4],3.9 g/dL
same,TBIL,[4],0.3 mg/dL
same,TC,[4],61 mg/dL
same,TG,[4],170.2 mg/dL
same,TP,[4],6.4 g/dL
same,gamma-GTP,[4],2 IU/L
same,TERMINAL_BW,[5],234.1 g
same,APTT,[5],16.6 s
same,Bas,[5],0%
same,Eos,[5],1%
same,Fbg,[5],220 mg/dL
same,Ht,[5],42.6%
same,Lym,[5],76.6%
same,MCHC,[5],33.4%
same,MCV,[5],66.3 fL
same,Mono,[5],8.4%
same,Neu,[5],14%
same,RBC,[5],643.4 x10_4/ul
same,Ret,[5],7.4%
same,WBC,[5],137.6 x10_2/uL
same,KIDNEY_L,[5],1 g
same,KIDNEY_R,[5],1 g
same,KIDNEY_TOTAL,[5],2 g
same,ALP,[5],895.4 IU/L
same,ALT,[5],37.2 IU/L
same,AST,[5],63.2 IU/L
same,BUN,[5],16 mg/dL
same,CRE,[5],0.6 mg/dL
same,Ca,[5],10.4 mg/dL
same,Cl,[5],106.4 meq/L
same,DBIL,[5],0 mg/dL
same,GLC,[5],195.6 mg/dL
same,IP,[5],8.1 mg/dL
same,K,[5],4.9 meq/L
same,PL,[5],170.4 mg/dL
same,RALB,[5],4 g/dL
same,TBIL,[5],0.3 mg/dL
same,TC,[5],86.2 mg/dL
same,TG,[5],125.8 mg/dL
same,TP,[5],6 g/dL
same,gamma-GTP,[5],1.6 IU/L
same,TERMINAL_BW,[6],263.4 g
same,TERMINAL_BW,[7],327.9 g
same,TERMINAL_BW,[8],390.6 g
same,APTT,[6],16.5 s
same,Bas,[6],0%
same,Eos,[6],0.8%
same,Fbg,[6],229.8 mg/dL
same,Hb,[6],14.3 g/dL
same,Ht,[6],42.8%
same,Lym,[6],85.2%
same,MCHC,[6],33.5%
same,MCV,[6],64.2 fL
same,Mono,[6],5%
same,Neu,[6],8.8%
same,RBC,[6],668 x10_4/ul
same,Ret,[6],5.4%
same,APTT,[7],16.2 s
same,Bas,[7],0%
same,Eos,[7],0.8%
same,Fbg,[7],226.8 mg/dL
same,Hb,[7],14.8 g/dL
same,Ht,[7],44.2%
same,Lym,[7],85%
same,MCHC,[7],33.5%
same,MCV,[7],62.7 fL
same,Mono,[7],4.4%
same,Neu,[7],10%
same,RBC,[7],705.2 x10_4/ul
same,Ret,[7],5.1%
same,WBC,[7],153 x10_2/uL
same,APTT,[8],15.5 s
same,Bas,[8],0%
same,Eos,[8],0.4%
same,Fbg,[8],239.4 mg/dL
same,Hb,[8],15.3 g/dL
same,Ht,[8],45.7%
same,Lym,[8],85.4%
same,MCHC,[8],33.5%
same,MCV,[8],58.2 fL
same,Mono,[8],4%
same,RBC,[8],786.8 x10_4/ul
same,Ret,[8],2.4%
same,WBC,[8],138.6 x10_2/uL
same,KIDNEY_L,[6],1.2 g
same,KIDNEY_R,[6],1.2 g
same,KIDNEY_TOTAL,[6],2.4 g
same,KIDNEY_L,[7],1.3 g
same,KIDNEY_R,[7],1.3 g
same,KIDNEY_TOTAL,[7],2.6 g
same,KIDNEY_L,[8],1.4 g
same,KIDNEY_R,[8],1.4 g
same,KIDNEY_TOTAL,[8],2.7 g
same,ALP,[6],882.4 IU/L
same,ALT,[6],30 IU/L
same,AST,[6],61.4 IU/L
same,BUN,[6],18.6 mg/dL
same,CRE,[6],0.5 mg/dL
same,Ca,[6],10.5 mg/dL
same,Cl,[6],105.8 meq/L
same,DBIL,[6],0 mg/dL
same,GLC,[6],193.6 mg/dL
same,IP,[6],7.7 mg/dL
same,K,[6],5.2 meq/L
same,RALB,[6],4 g/dL
same,TBIL,[6],0.3 mg/dL
same,TC,[6],77 mg/dL
same,TG,[6],119 mg/dL
same,TP,[6],6.7 g/dL
same,gamma-GTP,[6],1.4 IU/L
same,ALP,[7],735.2 IU/L
same,ALT,[7],27.6 IU/L
same,AST,[7],57.2 IU/L
same,BUN,[7],20.4 mg/dL
same,CRE,[7],0.6 mg/dL
same,Ca,[7],10.8 mg/dL
same,Cl,[7],107.6 meq/L
same,DBIL,[7],0.002 mg/dL
same,GLC,[7],201 mg/dL
same,IP,[7],8.2 mg/dL
same,K,[7],5 meq/L
same,RALB,[7],4 g/dL
same,TBIL,[7],0.3 mg/dL
same,TC,[7],71 mg/dL
same,TG,[7],165.4 mg/dL
same,TP,[7],6.2 g/dL
same,gamma-GTP,[7],1.2 IU/L
same,ALP,[8],633.6 IU/L
same,ALT,[8],31.6 IU/L
same,AST,[8],57.8 IU/L
same,BUN,[8],21 mg/dL
same,CRE,[8],0.6 mg/dL
same,Ca,[8],10.5 mg/dL
same,Cl,[8],106.8 meq/L
same,DBIL,[8],0.012 mg/dL
same,GLC,[8],193.2 mg/dL
same,IP,[8],7.3 mg/dL
same,K,[8],4.3 meq/L
same,RALB,[8],4.2 g/dL
same,TBIL,[8],0.3 mg/dL
same,TC,[8],65.2 mg/dL
same,TG,[8],208.8 mg/dL
same,TP,[8],6.5 g/dL
same,gamma-GTP,[8],1.8 IU/L
same,TERMINAL_BW,[9],231.9 g
same,APTT,[9],17.3 s
same,Bas,[9],0%
